Laboratory results from patent publication US9169224B2, “Piperazinyl and piperidinyl ureas as modulators of fatty acid amide hydrolase” (Janssen Pharmaceutica NV, priority 2004, dated 2015).
Structures can show the parent of a compound that is named as a salt.

Biological target: FAAH (Homo sapiens (Human), UniProt O00519)
Experiment: Assay Method 1: FAAH assay, T84 cell homogenate, 3H-anandamide hydrolysis
Assay type: biochemical
Settings: 3H-AEA tracer 200 nM, 1 h at rt
In short: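 Homogenate of human T84 cells in pH 9 Tris/EDTA buffer with 0.02% Triton X-100 was incubated with compound and 200 nM final 3H-anandamide for 1 h at rt. Released [3H]ethanolamine was separated from substrate through activated charcoal by centrifugation and quantified by scintillation counting.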

FAAH, sequence (O00519 whole entry): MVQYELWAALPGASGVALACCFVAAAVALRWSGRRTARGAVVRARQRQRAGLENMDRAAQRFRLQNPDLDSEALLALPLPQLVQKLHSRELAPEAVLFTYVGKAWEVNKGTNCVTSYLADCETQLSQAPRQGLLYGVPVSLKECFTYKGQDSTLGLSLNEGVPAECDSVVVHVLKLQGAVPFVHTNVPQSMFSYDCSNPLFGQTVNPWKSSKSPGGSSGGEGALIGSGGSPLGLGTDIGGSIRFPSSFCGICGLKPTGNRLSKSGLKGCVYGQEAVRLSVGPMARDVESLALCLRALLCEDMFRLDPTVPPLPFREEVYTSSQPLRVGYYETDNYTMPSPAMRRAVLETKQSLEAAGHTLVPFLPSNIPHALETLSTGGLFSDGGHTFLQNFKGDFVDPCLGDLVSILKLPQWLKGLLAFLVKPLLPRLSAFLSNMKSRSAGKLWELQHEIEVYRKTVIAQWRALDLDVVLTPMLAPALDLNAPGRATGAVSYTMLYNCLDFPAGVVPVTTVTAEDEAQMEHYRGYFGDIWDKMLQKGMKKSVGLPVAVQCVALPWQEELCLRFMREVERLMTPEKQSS

Row | SMILES | IC50
1 | O=C(Nc1ccccc1)N1CCN(Cc2cccc(OCCN3CCCCC3)c2)CC1 [Example 126, 4-[3-(2-Piperidin-1-yl-ethoxy)-benzyl]-piperazine-1-carboxylic acid phenylamide] | 2000 nM
2 | CN(C)CCCOc1cccc(CN2CCN(C(=O)Nc3ccccc3)CC2)c1 [Example 127, 4-[3-(3-Dimethylamino-propoxy)-benzyl]-piperazine-1-carboxylic acid phenylamide] | 2000 nM
3 | O=C(Nc1ccccc1)N1CCN(Cc2cccc(OCCCN3CCCCC3)c2)CC1 [Example 128, 4-[3-(3-Piperidin-1-yl-propoxy)-benzyl]-piperazine-1-carboxylic acid phenylamide] | 2000 nM
4 | CCOc1ccc(CN2CCN(C(=O)Nc3ccccc3)CC2)cc1 [Example 129, 4-(4-Ethoxy-benzyl)-piperazine-1-carboxylic acid phenylamide] | 2000 nM
5 | O=C(Nc1ccccc1)N1CCN(Cc2cccc(Oc3cccc(Cl)c3)c2)CC1 [Example 130, 4-[3-(3-Chloro-phenoxy)-benzyl]-piperazine-1-carboxylic acid phenylamide] | 160 nM
6 | O=C(Nc1ccccc1)N1CCN(Cc2cccc(Oc3ccc4ccccc4c3)c2)CC1 [Example 131, 4-[3-(Naphthalen-2-yloxy)-benzyl]-piperazine-1-carboxylic acid phenylamide] | 33 nM
7 | O=C(Nc1ccccc1)N1CCN(Cc2cccc(Oc3cc4ccccc4c4ccccc34)c2)CC1 [Example 132, 4-[3-(Phenanthren-9-yloxy)-benzyl]-piperazine-1-carboxylic acid phenylamide] | 3000 nM
8 | COC(=O)c1ccc(Oc2cccc(CN3CCN(C(=O)Nc4ccccc4)CC3)c2)cc1 [Example 133, 4-[3-(4-Phenylcarbamoyl-piperazin-1-ylmethyl)-phenoxy]-benzoic acid methyl ester] | 50 nM
9 | CS(=O)(=O)c1ccc(Oc2cccc(CN3CCN(C(=O)Nc4ccccc4)CC3)c2)cc1 [Example 134, 4-[3-(4-Methanesulfonyl-phenoxy)-benzyl]-piperazine-1-carboxylic acid phenylamide] | 65 nM
10 | COc1cccc(Oc2cccc(CN3CCN(C(=O)Nc4ccccc4)CC3)c2)c1 [Example 135, 4-[3-(3-Methoxy-phenoxy)-benzyl]-piperazine-1-carboxylic acid phenylamide] | 83 nM
11 | O=C(Nc1ccccc1)N1CCN(Cc2cccc(Oc3ccc4c(c3)OCO4)c2)CC1 [Example 136, 4-[3-(Benzo[1,3]dioxol-5-yloxy)-benzyl]-piperazine-1-carboxylic acid phenylamide] | 67 nM
12 | CS(=O)(=O)Oc1cccc(CN2CCN(C(=O)Nc3ccccc3)CC2)c1 [Example 137, Methanesulfonic acid 3-(4-phenylcarbamoyl-piperazin-1-ylmethyl)-phenyl ester] | 1000 nM
13 | O=C(Nc1ccccc1)N1CCN(Cc2cccc(OS(=O)(=O)c3ccccc3)c2)CC1 [Example 138, Benzenesulfonic acid 3-(4-phenylcarbamoyl-piperazin-1-ylmethyl)-phenyl ester] | 59 nM
14 | O=C(Nc1ccccc1)N1CCN(Cc2cccc(OS(=O)(=O)c3ccc(Cl)cc3)c2)CC1 [Example 139, 4-Chloro-benzenesulfonic acid 3-(4-phenylcarbamoyl-piperazin-1-ylmethyl)-phenyl ester] | 380 nM
15 | O=C(Nc1ccccc1)N1CCN(Cc2cccc(I)c2)CC1 [Example A, 4-(3-Iodo-benzyl)-piperazine-1-carboxylic acid phenylamide, reference compound] | 120 nM
16 | O=C(Nc1ccccc1)N1CCN(Cc2cccc(Br)c2)CC1 [Example C, 4-(3-Bromo-benzyl)-piperazine-1-carboxylic acid phenylamide, reference compound] | 280 nM
17 | Cc1ccc(CN2CCN(C(=O)Nc3ccccc3)CC2)cc1C [Example D, 4-(3,4-Dimethyl-benzyl)-piperazine-1-carboxylic acid phenylamide, reference compound] | 630 nM
18 | Cc1ccc(CN2CCN(C(=O)Nc3ccccc3)CC2)cc1 [Example E, 4-(4-Methyl-benzyl)-piperazine-1-carboxylic acid phenylamide, reference compound] | 1300 nM
19 | O=C(Nc1ccccc1)N1CCN(CCc2ccccc2)CC1 [Example F, 4-Phenethyl-piperazine-1-carboxylic acid phenylamide, reference compound] | > 10000 nM
20 | O=C(Nc1ccccc1)N1CCC(Cc2ccccc2)CC1 [Example H, 4-Benzyl-piperidine-1-carboxylic acid phenylamide, reference compound] | 270 nM
21 | O=C(Nc1ccccc1)N1CCN(CCCc2ccccc2)CC1 [Example I, 4-(3-Phenyl-propyl)-piperazine-1-carboxylic acid phenylamide, reference compound] | 1700 nM
22 | O=C(Nc1ccccc1)N1CCN(Cc2ccccc2)CC1 [Example J, 4-Benzyl-piperazine-1-carboxylic acid phenylamide, reference compound] | 2000 nM
23 | O=C(Nc1ccccc1)N1CCN(Cc2ccccc2OCc2ccccc2)CC1 [Example K, 4-(2-Benzyloxy-benzyl)-piperazine-1-carboxylic acid phenylamide, reference compound] | > 10000 nM
24 | O=C(Nc1ccccc1)N1CCN(C2CCc3cc(Br)ccc3C2)CC1 (stereo not drawn) [Example L, 4-(6-Bromo-1,2,3,4-tetrahydro-naphthalen-2-yl)-piperazine-1-carboxylic acid phenylamide, reference compound] | 370 nM

Same assay, conditions: 3H-AEA tracer 200 nM, 1 h at rt, dihydrochloride

Row | SMILES | IC50
25 | O=C(Nc1ccccc1)N1CCN(Cc2ccc3ccccc3n2)CC1 [Example 163, 4-Quinolin-2-ylmethyl-piperazine-1-carboxylic acid phenylamide dihydrochloride] | 23 nM

Same assay, conditions: 3H-AEA tracer 200 nM, 1 h at rt, hydrochloride

Row | SMILES | IC50
26 | COc1cc(Br)cc(CN2CCN(C(=O)Nc3ccccc3)CC2)c1O [Example 161, 4-(5-Bromo-2-hydroxy-3-methoxy-benzyl)-piperazine-1-carboxylic acid phenylamide hydrochloride] | 210 nM
27 | O=C(Nc1ccccc1)N1CCN(Cc2ccc3c(c2)OCO3)CC1 [Example B1, 4-Benzo[1,3]dioxol-5-ylmethyl-piperazine-1-carboxylic acid phenylamide hydrochloride, reference compound] | 1200 nM
